Measured values reported in publication PMC12414870, “First‐in‐class inhibitors of SbnA reduce siderophore production in Staphylococcus aureus” (The Febs Journal, 2025).

Tests used:
SbnA [1] = biological target: T1, SbnA (Staphylococcus aureus, UniProt A6QDA0); assay: PNP-coupled continuous assay (MESG, […] nm), global fit; format: biochemical
T1 construct: synthetic codon-optimised gene in pSH21p::TrxA, His-Trx tag with TEV site, tag cleaved and removed; expressed in E. coli BL21 ArcticExpress (DE3)

SbnA [2] = biological target: T1, SbnA; assay: PNP-coupled continuous assay (MESG, […] nm); format: biochemical
SbnA [3] = biological target: T1, SbnA; assay: PNP-coupled continuous assay, global fit to ping-pong with substrate inhibition; format: biochemical; settings: substrate inhibition (unproductive binding to internal aldimine); 0.035-0.720 mM L-OPS; 50 mM HEPES pH 7.8, 1 mM TCEP, 25 °C
[4] = tested on: N[C@@H](COP(=O)(O)O)C(=O)O; assay: purified protein; settings: co-substrate L-Glu 0.1-150 mM, 50 mM HEPES pH 7.8, 1 mM TCEP, 25 °C

T1 sequence (A6QDA0 whole entry): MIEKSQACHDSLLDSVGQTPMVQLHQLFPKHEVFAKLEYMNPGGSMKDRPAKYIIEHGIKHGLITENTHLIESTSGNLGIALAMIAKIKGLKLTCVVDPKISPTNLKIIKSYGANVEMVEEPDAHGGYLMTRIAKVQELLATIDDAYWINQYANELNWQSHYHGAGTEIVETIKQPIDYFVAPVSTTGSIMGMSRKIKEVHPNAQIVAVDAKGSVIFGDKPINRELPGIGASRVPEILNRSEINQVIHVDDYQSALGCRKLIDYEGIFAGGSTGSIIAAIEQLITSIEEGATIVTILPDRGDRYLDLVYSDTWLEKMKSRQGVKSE

Molecule | Ki (SbnA [1]) [µM] | IC50 (SbnA [2]) [µM] | also measured
O=C(O)CC(C(=O)O)c1ccccc1 (racemic) [compound 2, 2-phenylsuccinic acid] | 124 ± 13 | 366 ± 37 | –
N[C@@H](CCC(=O)O)C(=O)O [L-glutamate] | – | – | Ki (SbnA [3]): 25750 ± 7930 µM
O=C(O)CC(O)(CC(=O)O)C(=O)O [citrate] | 900 ± 200 | 800 ± 100 | –
O=C(O)/C=C(\C(=O)O)c1ccccc1 [compound 3, Z-2-phenylbut-2-enedioic acid] | 16 ± 2 | 37 ± 3 | –
O=C(O)CCC(=O)C(=O)O [α-ketoglutarate] | – | 2600 ± 200 | –
SbnA (Staphylococcus aureus subsp. aureus str. Newman) | – | – | Km [4]: 27 ± 6 µM; kcat/Km [4]: 170000 M⁻¹ s⁻¹
